{
  "source": "ChEMBL document CHEMBL1152015",
  "about": "“One-step synthesis of radioiodinated biotin derivatives” (Bioorg Med Chem Lett, 1996)",
  "key": {"[1]": {"assay": "Compound was evaluated for its affinity towards avidin"}, "[2]": {"assay": "compound was evaluated for its affinity towards streptavidin."}},
  "data": [
    {"smiles": "O=C(O)CCCC[C@@H]1SC[C@@H]2NC(=O)N[C@@H]21", "values": [
      {"measurement": "Ka", "setting": "[1]", "result": "1e+16", "unit": "M⁻¹"},
      {"measurement": "Ka", "setting": "[2]", "result": "1e+16", "unit": "M⁻¹"}
    ]}
  ]
}
